Measurements: paper PMC11277083, “A Natural Bioactive Peptide from Pinctada fucata Pearls Can Be Used as a Potential Inhibitor of the Interaction between SARS-CoV-2 and ACE2 against COVID-19” (International Journal of Molecular Sciences, 2024)
Like-named read-outs stand apart in the source and are kept apart here. Where no end group is shown, it is not given here.

Columns and labels:
ACE2 [1] = conditions: compared with KKCH-ACE2 affinity; cited from earlier work
HEK293T = conditions: 394.10 μM; cited from earlier work
ACE2 [2] = conditions: reduces the affinity between spiny proteins and ACE2; cited from earlier work
[3] = test system: virus S1 protein and the ACE2 receptor; conditions: cited from earlier work
Vero cells = conditions: for survival rate of Vero cells: 2 h
ACE2 protein = molecular target: T1, ACE2 protein (Homo sapiens, UniProt Q9BYF1); assay: SPR affinity for ACE2 (Biacore T200, CM5 chip); conditions: ACE2 on CM5 chip, 1:1 Langmuir binding model, read-out: association (Ka)
T1 construct: purchased CUSABIO (Wuhan, China) CSB-MP866317HU
Description: The ACE2 protein (no. CSB-MP866317HU) was a recombinant human protein purchased from CUSABIO (Wuhan, China). […] The ACE2 protein was diluted to 50 μg/mL with sodium acetate at pH 4.0. The protein was fixed on the CM5 chip at a flow rate of 10 μL/min, and the coupling time was 420 s. […] Biacore T200 Control software (v.2.0) was used to collect sample data, and the 1:1 Langmuir binding model was fitted globally to determine the final KD. The binding affinity KD could be calculated from dissociation (Kd)/association (Ka).

S1-RBD/ACE2 = molecular target: T2, S1-RBD/ACE2 (Homo sapiens, UniProt Q9BYF1); assay: ELISA inhibition of S1-RBD binding to ACE2 (RayBio COVID-19 Spike ACE2 binding assay kit II); parameters: species or system SARS-CoV-2 (S1-RBD); conditions: 2 h, room temperature, 450 nm, repeated twice in each group, read-out: inhibitory rate on S1-RBD/ACE2
T2 construct: purchased RayBio (RayBiotech)
Description: The RayBio COVID-19 Spike ACE2 binding assay kit II (no. QHD43416) was used to detect the inhibitory effect of the KKCH peptides on the binding of the RBD protein and the ACE2 receptor protein. Using a PBS solution, KKCH was diluted to 10 μM, 90 μM, 180 μM, 360 μM, 720 μM, and 1440 μM. Then, 125 μL of test reagent was obtained by mixing different concentrations of the 10 μL KKCH peptide solutions with Fc-labeled recombinant S1-RBD protein solution. Next, 100 μL of test reagent was added to each well of a 96-well plate coated with the recombinant ACE2 protein, repeated twice in each group, and incubated at room temperature for 2 h. The plates were washed four times with a wash buffer to remove unbound S1-RBD proteins. Then, 100 μL of enzyme-labeled Anti-IgG was added to each well and incubated for 1 h, 100 μL of TMB was added at room temperature and incubated for 0.5 h, and 50 μL […] the reaction. The yellow intensity was measured at 450 nm, and the inhibition rate of the KKCH peptide was calculated.

HEK293T cells = conditions: for survival rate of HEK293T cells: 2 h
SARS-CoV-2 live virus = conditions: 2 h

T2 sequence (Q9BYF1 18-740): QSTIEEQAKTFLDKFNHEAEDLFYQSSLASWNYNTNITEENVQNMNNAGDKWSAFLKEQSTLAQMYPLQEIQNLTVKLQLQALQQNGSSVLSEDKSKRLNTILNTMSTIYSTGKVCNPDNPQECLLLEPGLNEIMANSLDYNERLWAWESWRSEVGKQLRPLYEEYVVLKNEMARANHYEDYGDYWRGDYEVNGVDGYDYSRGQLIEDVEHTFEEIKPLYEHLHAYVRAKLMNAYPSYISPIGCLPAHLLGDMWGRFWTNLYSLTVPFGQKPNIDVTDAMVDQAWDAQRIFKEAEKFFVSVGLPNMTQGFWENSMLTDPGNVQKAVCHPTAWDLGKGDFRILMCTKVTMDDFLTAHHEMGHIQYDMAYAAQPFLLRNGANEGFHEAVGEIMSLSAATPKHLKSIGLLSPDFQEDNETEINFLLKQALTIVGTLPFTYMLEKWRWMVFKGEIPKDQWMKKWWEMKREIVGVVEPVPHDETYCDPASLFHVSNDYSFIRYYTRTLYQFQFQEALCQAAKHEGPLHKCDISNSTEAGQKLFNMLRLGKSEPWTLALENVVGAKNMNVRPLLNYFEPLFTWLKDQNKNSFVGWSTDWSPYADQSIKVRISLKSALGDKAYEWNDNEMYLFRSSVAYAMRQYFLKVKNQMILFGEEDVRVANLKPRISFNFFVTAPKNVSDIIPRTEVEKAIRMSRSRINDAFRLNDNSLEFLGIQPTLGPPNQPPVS
T1 sequence (Q9BYF1 18-805): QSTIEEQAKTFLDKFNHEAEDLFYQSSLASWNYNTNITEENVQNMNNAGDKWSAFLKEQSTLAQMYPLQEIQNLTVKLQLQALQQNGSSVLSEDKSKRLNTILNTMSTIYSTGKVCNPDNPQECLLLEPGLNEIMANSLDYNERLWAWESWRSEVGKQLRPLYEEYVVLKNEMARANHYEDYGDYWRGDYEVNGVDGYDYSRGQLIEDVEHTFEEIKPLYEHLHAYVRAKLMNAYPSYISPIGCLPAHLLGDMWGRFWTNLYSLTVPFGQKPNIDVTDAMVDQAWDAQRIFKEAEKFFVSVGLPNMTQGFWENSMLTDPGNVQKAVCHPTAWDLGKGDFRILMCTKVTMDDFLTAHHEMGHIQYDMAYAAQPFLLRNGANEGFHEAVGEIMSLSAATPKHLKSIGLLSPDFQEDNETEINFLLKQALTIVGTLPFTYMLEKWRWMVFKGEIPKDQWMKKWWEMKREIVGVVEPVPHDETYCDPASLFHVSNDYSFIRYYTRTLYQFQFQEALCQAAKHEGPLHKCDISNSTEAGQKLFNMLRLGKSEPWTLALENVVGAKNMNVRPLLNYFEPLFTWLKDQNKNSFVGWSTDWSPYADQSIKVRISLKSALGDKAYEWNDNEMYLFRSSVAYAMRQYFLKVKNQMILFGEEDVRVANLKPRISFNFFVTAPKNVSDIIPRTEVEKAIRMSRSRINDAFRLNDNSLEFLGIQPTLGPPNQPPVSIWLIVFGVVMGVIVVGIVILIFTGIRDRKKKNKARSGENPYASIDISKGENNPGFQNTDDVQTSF

For tuftsin, the Kd (ACE2 [1]) is listed as 460 µM.
For “thanatin: peptide (thanatin) derived from insects”, the “cytotoxicity to HEK293T” value (HEK293T) is given as “no obvious cytotoxicity”.
For `CCN(CC)CCCC(C)Nc1ccnc2cc(Cl)ccc12` (stereo not shown) [chloroquine], the “effect on ACE2” value (ACE2 [2]) is listed as “can prevent the glycosylation of ACE2”.
In the case of `C[C@@H]1C[C@H]2[C@@H]3CCC4=CC(=O)C=C[C@]4(C)[C@@]3(F)[C@@H](O)C[C@]2(C)[C@@]1(O)C(=O)CO` [dexamethasone], the Kd (ACE2 [1]) is listed as 9.03 µM.
In the case of `C[C@@]1(C(=O)O)CC[C@]2(C)CC[C@]3(C)C4=CC(=O)c5c(cc(O)c(O)c5C=O)[C@]4(C)CC[C@@]3(C)[C@@H]2C1` [demethylzeylasteral], the Kd (ACE2 [1]) is listed as 1.74 µM.
In the case of `O=c1c(-c2ccc(O)cc2)coc2c([C@@H]3O[C@H](CO)[C@@H](O)[C@H](O)[C@H]3O)c(O)ccc12` [puerarin], the “reduction of RU values of S1 protein and ACE2” value [3] is listed as 20 units and the Kd (ACE2 [1]) is listed as 670 µM.
With KKCHFWPFPW [KKCH] the “toxicity to Vero cells (significance)” value (Vero cells; 40 to 400 µM, p > 0.05 vs control) was “not toxic to the cells in this range”, the “survival rate of Vero cells” value (Vero cells; 40 μM) was 97.81% and the “survival rate of Vero cells” value (Vero cells; 80 μM) was 96.97%. The “survival rate of Vero cells” value (Vero cells; 160 μM) was 98.23%, the “survival rate of Vero cells” value (Vero cells; 240 μM) was 96.21% and the “survival rate of Vero cells” value (Vero cells; 320 μM) was 95.85%. The “survival rate of Vero cells” value (Vero cells; 400 μM) was 92.64%, the “survival rate of Vero cells” value (Vero cells; 480 μM) was 90.44% and the kon (ACE2 protein) was 154000 ± 1.5e+09 M⁻¹ s⁻¹. For the same compound, the inhibition at 10 µM (S1-RBD/ACE2; 10 μM) was 6.8%, the inhibition at 90 µM (S1-RBD/ACE2; 90 μM) was 10.9% and the inhibition at 180 µM (S1-RBD/ACE2; 180 μM) was 17%. It also gave an inhibition at 360 µM (S1-RBD/ACE2; 360 μM) of 34%, an inhibition at 720 µM (S1-RBD/ACE2; 720 μM) of 89.7% and an inhibition at 1440 µM (S1-RBD/ACE2; 1440 μM) of 94.1%. The “viability rate of BEAS-2B cells” value (BEAS-2B cells; 40 µM) was 99.80%, the “viability rate of BEAS-2B cells” value (BEAS-2B cells; 80 µM) was 99.77% and the “viability rate of BEAS-2B cells” value (BEAS-2B cells; 160 µM) was 99.37%. For the same compound, the “viability rate of BEAS-2B cells” value (BEAS-2B cells; 240 µM) was 99.63%, the “viability rate of BEAS-2B cells” value (BEAS-2B cells; 320 µM) was 98.07% and the “viability rate of BEAS-2B cells” value (BEAS-2B cells; 400 µM) was 95.87%. The “viability rate of BEAS-2B cells” value (BEAS-2B cells; 480 µM) was 82.95%, the “effect on BEAS-2B cell viability (significance)” value (BEAS-2B cells; less than 480 μM, p > 0.05) was “no significant effect on cell viability” and the “survival rate of HEK293T cells” value (HEK293T cells; 40 μM) was 98.28%. For the same compound, the “survival rate of HEK293T cells” value (HEK293T cells; 80 μM) was 95.28%, the “survival rate of HEK293T cells” value (HEK293T cells; 160 μM) was 94.74% and the “survival rate of HEK293T cells” value (HEK293T cells; 240 μM) was 92.39%. The “survival rate of HEK293T cells” value (HEK293T cells; 320 μM) was 90.77%, the “survival rate of HEK293T cells” value (HEK293T cells; 400 μM) was 92.69% and the “survival rate of HEK293T cells” value (HEK293T cells; 480 μM) was 81.66%. The “effect on HEK293T cell viability (significance)” value (HEK293T cells; less than 480 μM, p > 0.05) was “no significant effect on cell viability”, the “inhibitory rate against SARS-CoV-2” value (SARS-CoV-2 live virus; 10 μM) was 4.97% and the “inhibitory rate against SARS-CoV-2” value (SARS-CoV-2 live virus; 25 μM) was 11.32%. The “inhibitory rate against SARS-CoV-2” value (SARS-CoV-2 live virus; 50 μM) was 15.40%, the “inhibitory rate against SARS-CoV-2” value (SARS-CoV-2 live virus; 100 μM) was 17.91% and the “inhibitory rate against SARS-CoV-2” value (SARS-CoV-2 live virus; 150 μM) was 22.41%. For the same compound, the “inhibitory rate against SARS-CoV-2” value (SARS-CoV-2 live virus; 200 μM) was 32.01%, the “inhibitory rate against SARS-CoV-2” value (SARS-CoV-2 live virus; 350 μM) was 38.31% and the “inhibitory rate against SARS-CoV-2” value (SARS-CoV-2 live virus; 450 μM) was 54.80%.
